Bounds are passed on as bounds.

The subject of one assay is HCT116 WT. As to the kind of experiment: Proliferation of HCT116 colorectal cell line, Cell TiterGlo. The class given is cell-based, human. To be noted: Homo sapiens, HCT-116, wild type HCT116; 10-point dose response in triplicate; multiple values = separate independent experiments; read-out: HCT116 IC50 (uM) HCT116 WT. The essentials:
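HCT116 colorectal cells, wild type, GCN2 CRISPR knockout, or wild type plus ISRIB; proliferation read by CellTiter-Glo luminescence. 10-point dose response in triplicate, IC50 reported; multiple values are independent experiments.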
(In general: Cellular ATP, detected with luciferase, serves as a proxy for viable cell number.)
For the compound `Cc1ncccc1C(=O)Nc1ccc(-c2cc(NC(=O)c3ccccc3)n(C)n2)cc1F` [SW394743, N-(4-(5-Benzamido-1-methyl-1H-pyrazol-3-yl)-2-fluorophenyl)-2-methylnicotinamide], the IC50 (as a rule, the concentration at which inhibition is half-maximal) amounted to 15 µM.

`Cc1ncccc1C(=O)Nc1ccc(-c2cc(NC(=O)C3CCC(F)(F)CC3)n(C)n2)cc1F` [SW394744, N-(4-(5-(4,4-Difluorocyclohexane-1-carboxamido)-1-methyl-1H-pyrazol-3-yl)-2-fluorophen-yl)-2-methylnicotinamide]: the IC50 was above 50 µM.

For the compound `Cc1ncccc1C(=O)Nc1ccc(-c2cc(NC(=O)c3ccccc3F)n(C)n2)cc1F` [SW394745, N-(2-Fluoro-4-(5-(2-fluorobenzamido)-1-methyl-1H-pyrazol-3-yl)phenyl)-2-methylnicotinamide], the concentration for half-maximal inhibition (IC50) is 21.7 µM.

For `Cc1ncccc1C(=O)Nc1ccc(-c2cc(NC(=O)C3CCOCC3)n(C)n2)cc1` [SW394746, 2-Methyl-N-(4-(1-methyl-5-(tetrahydro-2H-pyran-4-carboxamido)-1H-pyrazol-3-yl)phenyl)nicotinamide], the IC50 is 0.13 µM.

Take `Cn1nc(-c2ccc(NC(=O)c3cccc(CN=[N+]=[N-])c3Cl)cc2)cc1NC(=O)c1ccccc1Cl` [SW394763, 3-(azidomethyl)-2-chloro-N-(4-(5-(2-chlorobenzamido)-1-methyl-1H-pyrazol-3-yl)phenyl)benzamide]: the concentration for half-maximal inhibition (IC50) was 0.02 µM.

For `Cn1nc(-c2ccc(NC(=O)c3ccccc3C3CCN(C(=O)OC(C)(C)C)CC3)cc2)cc1NC(=O)c1ccccc1` [SW394764, tert-butyl4-(2-((4-(5-benzamido-1-methyl-1H-pyrazol-3-yl)phenyl)carbamoyl)phenyl)piperidine-1-carboxylate], the IC50 is 0.3 µM.

With `Cn1nc(-c2ccc(NC(=O)c3ccccc3C3CCNCC3)cc2)cc1NC(=O)c1ccccc1` [SW394767, N-(4-(5-benzamido-1-methyl-1H-pyrazol-3-yl)phenyl)-2-(piperidin-4-yl)benzamide], the IC50 was 0.27 µM.

As for `Cn1nc(-c2ccc(NC(=O)c3cccc(CN)c3Cl)cc2)cc1NC(=O)c1ccccc1Cl` [SW394771, 3-(aminomethyl)-2-chloro-N-(4-(5-(2-chlorobenzamido)-1-methyl-1H-pyrazol-3-yl)phenyl)benzamide], the IC50 was 0.086 µM.

As to `CN(C)c1cccc(C(=O)Nc2cc(-c3ccc(NC(=O)c4ccccc4Cl)cc3)nn2C)c1` [SW394870, 2-Chloro-N-(4-(5-(3-(dimethylamino)benzamido)-1-methyl-1H-pyrazol-3-yl)phenyl)benzamide], the IC50 was found to be 0.02 µM.

`Cc1ncccc1C(=O)Nc1ccc(-c2cc(NC(=O)c3cccc(N(C)C)c3)n(C)n2)cc1` [SW394871, N-(4-(5-(3-(Dimethylamino)benzamido)-1-methyl-1H-pyrazol-3-yl)phenyl)-2-methylnicotine-amide]: the IC50 stood at 0.01 µM.

For the compound `Cn1nc(-c2ccc(NC(=O)c3ccccc3Cl)cc2)cc1NC(=O)Nc1ccccc1` [SW394872, 2-Chloro-N-(4-(1-methyl-5-(3-phenylureido)-1H-pyrazol-3-yl)phenyl)benzamide], the 50% inhibitory concentration (IC50) was 0.11 µM.

Regarding `Cn1nc(-c2ccc(NC(=O)c3ccccc3Cl)cc2)cc1NC(=O)N1CCOCC1` [SW394873, N-(3-(4-(2-Chlorobenzamido)phenyl)-1-methyl-1H-pyrazol-5-yl)morpholine-4-carboxamide], the IC50 was found to be 0.29 µM.

Consider `Cn1nc(-c2ccc(NC(=O)c3ccccc3Cl)cc2)cc1NC(=O)N1CCCCC1` [SW394874, N-(3-(4-(2-Chlorobenzamido)phenyl)-1-methyl-1H-pyrazol-5-yl)piperidine-1-carboxamide], for which the half-maximal inhibitory concentration (IC50) came to 0.067 µM.

Consider `Cn1nc(-c2ccc(NC(=O)c3ccccc3Cl)cc2)cc1NC(=O)N1CCCC1` [SW394876, N-(3-(4-(2-Chlorobenzamido)phenyl)-1-methyl-1H-pyrazol-5-yl)pyrrolidine-1-carboxamide], for which the IC50 is 0.19 µM.

On to `COC(=O)c1cccc(C(=O)Nc2cc(-c3ccc(NC(=O)c4ccccc4Cl)cc3)nn2C)c1` [SW394878, Methyl 3-((3-(4-(2-chlorobenzamido)phenyl)-1-methyl-1H-pyrazol-5-yl)carbamoyl)benzoate], for which the IC50 was determined as 0.01 µM.

For `Cc1ncccc1C(=O)Nc1ccc(-c2cc(N(C)C(=O)c3ccccc3)n(C)n2)cc1` [SW394880-1, 2-methyl-N-(4-(1-methyl-5-(N-methylbenzamido)-1H-pyrazol-3-yl)phenyl)nicotinamide], the IC50 came out at 1.04 µM.

Turning to `Cn1nc(-c2ccc(NC(=O)N3CCOCC3)cc2)cc1NC(=O)c1ccccc1` [SW394892-1, N-(4-(5-benzamido-1-methyl-1H-pyrazol-3-yl)phenyl)morpholine-4-carboxamide], the IC50 is above 5 µM.

Take `Cn1nc(-c2ccc(NC(=O)N3CCCC3)cc2)cc1NC(=O)c1ccccc1` [SW394893-1, N-(4-(5-benzamido-1-methyl-1H-pyrazol-3-yl)phenyl)pyrrolidine-1-carboxamide]: the IC50 is above 5 µM.

With `CC(=O)Nc1cccc(C(=O)Nc2cc(-c3ccc(NC(=O)c4ccccc4Cl)cc3)nn2C)c1` [SW394894-1, N-(4-(5-(3-acetamidobenzamido)-1-methyl-1H-pyrazol-3-yl)phenyl)-2-chlorobenzamide], the IC50 amounted to 0.01 µM.

Regarding `Cn1nc(-c2ccc(NC(=O)c3ccccc3Cl)cc2)cc1NC(=O)c1cccc(NS(C)(=O)=O)c1` [SW394895-1, 2-chloro-N-(4-(1-methyl-5-(3-(methylsulfonamido)benzamido)-1H-pyrazol-3-yl)phenyl)benzamide], the 50% inhibitory concentration (IC50) is 0.03 µM.

In the case of `Cn1nc(-c2ccc(NC(=O)c3ccccc3Cl)cc2)cc1NC(=O)c1cccc(CNC(=O)OC(C)(C)C)c1` [SW394896-1, tert-butyl (3-((3-(4-(2-chlorobenzamido)phenyl)-1-methyl-1H-pyrazol-5-yl)carbamoyl)benzyl)carbamate], the IC50 was 0.05 µM.

The assay is the same for the next values; noted with them: wild type HCT116; 10-point dose response in triplicate; multiple values = separate independent experiments.
For the compound `Cn1nc(-c2ccc(NC(=O)c3ccccc3Cl)cc2)cc1NS(=O)(=O)c1ccccc1` [SW394768, 2-Chloro-N-(4-(1-methyl-5-(phenylsulfonamido)-1H-pyrazol-3-yl)phenyl)benzamide], the “HCT116 IC50 (uM) HCT116 WT” value was “inactive”.

As for `Cn1nc(-c2ccc(NC(=O)c3ccccc3Cl)cc2)cc1NC(=O)c1cccc(C(=O)O)c1` [SW394800, 3-((3-(4-(2-Chlorobenzamido)phenyl)-1-methyl-1H-pyrazol-5-yl)carbamoyl)benzoic acid], the “HCT116 IC50 (uM) HCT116 WT” value is “inactive”.

`CN1CCN(C(=O)Nc2cc(-c3ccc(NC(=O)c4ccccc4Cl)cc3)nn2C)CC1` [SW394875, N-(3-(4-(2-Chlorobenzamido)phenyl)-1-methyl-1H-pyrazol-5-yl)-4-methylpiperazine-1-carb-oxamide]: the “HCT116 IC50 (uM) HCT116 WT” value was “inactive”.

Take `CC(=O)N1CCN(C(=O)Nc2cc(-c3ccc(NC(=O)c4ccccc4Cl)cc3)nn2C)CC1` [SW394877, 4-Acetyl-N-(3-(4-(2-chlorobenzamido)phenyl)-1-methyl-1H-pyrazol-5-yl)piperazine-1-carb-oxamide]: the “HCT116 IC50 (uM) HCT116 WT” value was “inactive”.

Still in this assay, the particulars now being: wild type HCT116; 10-point dose response in triplicate; multiple values = separate independent experiments; read-out: HCT116 IC50 (uM) HCT116 WT.
Turning to `Cn1nc(-c2ccc(NC(=O)N3CCCCC3)cc2)cc1NC(=O)c1ccccc1` [SW394891-1, N-(4-(5-benzamido-1-methyl-1H-pyrazol-3-yl)phenyl)piperidine-1-carboxamide], the IC50 is 0.24 µM.

Source of the values: US20250257041A1, “INDUCERS OF INTEGRATED STRESS RESPONSE TO TREAT CANCER” (The Board of Regents of The University of Texas System, priority 2022, published 2025).
